Values after ≈ are worked out from the molar mass of the structure shown. Positions of bridges follow the written chain, without caps; N, C: chain ends. Residues, ends and D or L forms follow the SMILES beside them. No end group written: not given here.
Tests used:
human red blood cells = format: cell-based; conditions: for HC50 (peptide concentration needed to induce haemolysis in human red blood cells at 50%): red cells of human, 1 h
Procedure: The protocol to determine the haemolytic activity of the peptides and HC50 values were described previously ([Grimsey et al., 2020]). Briefly, human blood was washed and diluted with PBS (4% v/v) and incubated with a pre-made dilution series of the peptides and incubated for 1 h at 37 C. The 100% haemolysis value was achieved by incubation with Triton X (1% final concentration). Haemoglobin was measured at 414 and 546 nm using an ELISA plate reader. HC50 values were determined using the Prism software (GraphPad).

[1] = tested on: methicillin-resistant Staphylococcus aureus HO 5096 0412 (MRSA); format: cell-based; conditions: methicillin-resistant HO 5096 0412
Excerpt: (§1) In this project the following bacterial strains were used: 1) methicillin-resistant Staphylococcus aureus (S. aureus) HO 5096 0412 (a neonatal infection isolate, isolated in Ipswich, England in 2005, obtained from Jody Lindsay (St. George’s, University of London), 2) Escherichia coli (E. coli, UB1005, F-, LAM-, gyrA37, relA1, spoT1, metB1, LAMR) used solely for transmission electron microscopy, E. coli (ATCC 25922), 3) Pseudomonas aeruginosa PAO1 obtained from Dr Robert E.W. Hancock (Department of Microbiology and Immunology, University of British Columbia).
(§2) Mueller-Hinton broth (MHb) (Merck, Life Science UK Limited, Dorset, UK)) was prepared concurring to the manufacturer’s directions was used to grow the bacterial strains. Liquid bacterial cultures were incubated at 37°C for 18–20 h on a shaker, bacterial culture on solid media was incubated for 18–24 h at 37°C.
(§3) A broth microdilution assay was applied to determine the minimum inhibitory concentrations (MIC) in MHb for both, using 5 × 10^5 CFU/ml (MICs in Table 1) and 10^8 CFU/ml (BioSAXS and electron microscopy, values in Table 2). A detailed description of the method can be found in the open-source publication by von Gundlach et al. (von Gundlach et al., 2019a).

[2] = tested on: Pseudomonas aeruginosa PAO1; format: cell-based
Excerpt: as §1, §2, §3

E. coli [3] = format: cell-based, Escherichia coli
Excerpt: as §1, §2, §3

E. coli [4] = format: cell-based, Escherichia coli; remark: listed apart in the source
Excerpt: as §3
Quite early on in our drug development process, we have selected optP7 over optP1 for a slightly better MIC against P. aeruginosa. Further investigations were performed with peptide optP7 only. Firstly, we investigated E. coli cells treated with optP7 by transmission electron microscopy (TEM) to get a better understanding of the mode of action/ultrastructural changes of the peptides on E. coli, see Figure 1. In order to achieve a sufficient number of bacteria to form a pellet, a bacterial concentration of 1 × 10^8 CFU/ml was used. […] The outer membrane of E. coli of the untreated sample appears thick and relatively smooth (Figure 1, arrow 1), whereas for the peptide treated one, it was damaged (Figure 1, arrow 2) and blebbing was visible (Figure 1, arrow 3), where lipopolysaccharides (LPS) form small vesicles and are shed from the cell. The inner membrane for both, the untreated control (Figure 1A, arrow 4), and the peptide treated E. coli (Figure 1, arrow 5) seemed to remain intact and no spillage of the cytosol content was observed. The DNA in untreated bacterial cells comprised dispersed fibrils in the cytoplasm, see Figure 1, dotted lines. The bacterial DNA is concentrated in a ‘DNA–plasm’ called the nucleoid ([Ohniwa et al., 2007]). The peptide optP7 creates an enlarged and spherical nucleoid, dotted line in Figure 1., typically seen in DNA-dependent RNA polymerase inhibitors and protein synthesis inhibitors. Compared to the untreated bacteria (Figure 1, arrow 6), the peptide treated ones show more pronounced granular substructures (Figure 1, arrow 7) in the cytosol could indicate aggregation of cytosolic proteins. These substructures were observed before using small AMPs ([Von Gundlach et al., 2016a], [2019]).
Small-angle X-ray scattering for biological samples (BioSAXS) on the P12 beamline can be used to measure ultrastructural changes within the bacteria in the range between 2 and 157 nm, from which we used the range from 20 to 120 nm for analysis of the bacteria after treatment with the antimicrobial peptides. […] The MICs for the selected peptides against E. coli at 1 × 10^8 CFU/ml were determined (Table 2). […] To quantify the subtle changes between the different treatments we used a PCA analysis using SciXMiner and the “Peptide Extension” tool ([Mikut, 2010]; [Mikut et al., 2017]) (Figure 4). […]

E. coli [5] = experiment: MIC of standard antibiotics against E. coli (BioSAXS comparison); format: cell-based, Escherichia coli; conditions: used at 3x MIC, 240 min incubation, for BioSAXS
Excerpt: To discuss the obtained results in the context of conventional antibiotics, compared the peptides to three antibiotics, tigecycline (bacteriostatic activity by binding to the […] ribosomal subunit of the bacterial ribosome), chloramphenicol (bacteriostatic activity by binding to the […] ribosomal subunit of the bacterial ribosome), and rifampicin (bactericidal activity by inhibiting the DNA-dependent RNA polymerase activity), see Figure 5. […] As the antibiotics have slower kill kinetics than the AMPs, 240 min incubation time was used. […] The PCA values of Bac5-v291 and hyP7B5GK deviate strongly from the untreated controls and the standard antibiotics. The PCA values of peptides hyP7B5Cys and optP7 are nearest to chloramphenicol.

| Compound | Therapeutic window HC50/MIC(MRSA) (human red blood cells) | HC50 (peptide concentration needed to induce haemolysis in human red blood cells at 50%) (human red blood cells) [µM] | MIC MRSA [1] [µM] | MIC PA (P. aeruginosa) [2] [µM] | MIC E. coli (E. coli [3]) [µM] | MIC E. coli at 1 × 10^8 CFU/ml (E. coli [4]) [µM] | MIC against E. coli (standard antibiotics) (E. coli [5]) [µg/mL] |
| --- | --- | --- | --- | --- | --- | --- | --- |
| VRKPPYLPRPRPRPLGGGKIILRIRWR-NH2 [hyP1CoG2] | >62.8 | >157 | 2.5 | 2.5 | 1 | – | – |
| RWRRPIRRRPIRPPFWRKKKKRRVRWIIW-NH2 [hyP7B5K] | 41 | 82 | 2 | 2 | 2 | – | – |
| KIILRIRWRGGGVRKPPYLPRPRPRPL-NH2 [hyP1CoG1] | >62.8 | >157 | 2.5 | 1 | 1 | – | – |
| RWRRPIRRRPIRPPFWRGGGKRRVRWIIW-NH2 [hyP7B5G] | 51 | 102 | 2 | 2 | 2 | – | – |
| CC[C@H](C)[C@H](NC(=O)[C@H](Cc1c[nH]c2ccccc12)NC(=O)[C@H](CCCNC(=N)N)NC(=O)[C@@H](NC(=O)[C@H](CCCNC(=N)N)NC(=O)[C@H](CCCNC(=N)N)NC(=O)[C@H](CCCCN)NC(=O)CNC(=O)[C@H](CCCCN)NC(=O)[C@@H]1CSSC[C@H](NC(=O)[C@H](CCCCN)NC(=O)CNC(=O)[C@H](CCCCN)NC(=O)[C@H](CCCNC(=N)N)NC(=O)[C@H](Cc2c[nH]c3ccccc23)NC(=O)[C@H](Cc2ccccc2)NC(=O)[C@@H]2CCCN2C(=O)[C@@H]2CCCN2C(=O)[C@H](CCCNC(=N)N)NC(=O)[C@@H](NC(=O)[C@@H]2CCCN2C(=O)[C@H](CCCNC(=N)N)NC(=O)[C@H](CCCNC(=N)N)NC(=O)[C@H](CCCNC(=N)N)NC(=O)[C@@H](NC(=O)[C@@H]2CCCN2C(=O)[C@H](CCCNC(=N)N)NC(=O)[C@H](CCCNC(=N)N)NC(=O)[C@H](Cc2c[nH]c3ccccc23)NC(=O)[C@@H](N)CCCNC(=N)N)[C@@H](C)CC)[C@@H](C)CC)C(=O)N[C@@H](CO)C(=O)N[C@@H](CO)C(=O)N1)C(C)C)C(=O)N[C@H](C(=O)N[C@@H](Cc1c[nH]c2ccccc12)C(N)=O)[C@@H](C)CC [hyP7B5Cys] (H-RWRRPIRRRPIRPPFWRKGKCSSCKGKRRVRWIIW-NH2; disulfide 21-24) | >102 | 102 | 1 (≈ 4.57 µg/mL) | 2 (≈ 9.15 µg/mL) | 0.6 (≈ 2.74 µg/mL) | 4 | – |
| VRKPPYLPRPRPRPL-NH2 [consP1] | – | >139 | >139 | >139 | 35 | – | – |
| KIILRIRWR-NH2 [optP1] | 137 | 205 | 1.5 | 6 | 1 | – | – |
| CO[C@H]1/C=C/O[C@@]2(C)Oc3c(C)c(O)c4c(O)c(c(/C=N/N5CCN(C)CC5)c(O)c4c3C2=O)NC(=O)/C(C)=C\C=C\[C@H](C)[C@H](O)[C@@H](C)[C@@H](O)[C@@H](C)[C@H](OC(C)=O)[C@@H]1C [rifampicin] | – | – | – | – | – | – | 15 |
| VRKPPYLPRPRPRPLGGGKRRVRWIIW-NH2 [hyP7CoG1] | >30.8 | >154 | 5 | 5 | 1 | – | – |
| O=C(N[C@H](CO)[C@H](O)c1ccc([N+](=O)[O-])cc1)C(Cl)Cl [chloramphenicol] | – | – | – | – | – | – | 8 |
| KRRVRWIIWGGGVRKPPYLPRPRPRPL-NH2 [hyP7CoG2] | >30.8 | >154 | 5 | 2.5 | 2.5 | – | – |
| CN(C)c1cc(NC(=O)CNC(C)(C)C)c(O)c2c1C[C@H]1C[C@H]3[C@H](N(C)C)C(O)=C(C(N)=O)C(=O)[C@@]3(O)C(O)=C1C2=O [tigecycline] | – | – | – | – | – | – | 4 |
| RWRRPIRRRPIRPPFWRKGKGKGKRRVRWIIW-NH2 [hyP7B5GK] | >120 | >120 | 1 | 2 | 1 | 4 | – |
| KRRVRWIIW-NH2 [optP7] | >32.5 | >195 | 6 | 3 | 1.5 | 14 | – |
| RWRRPIRRRPIRPPFWR-NH2 [Bac5-v291] | >10.3 | >278 | 27 | 27 | 1.7 | 1.1 | – |

From paper PMC8711299, “Rational Designed Hybrid Peptides Show up to a 6-Fold Increase in Antimicrobial Activity and Demonstrate Different Ultrastructural Changes as the Parental Peptides Measured by BioSAXS” (Frontiers in Pharmacology, 2021)
